Assays:
[1] = biological target: T1, Ectonucleotide pyrophosphatase/phosphodiesterase family member 1 (Homo sapiens) (UniProt P22413); test: Inhibition of human GFP-fused NPP1 expressed in COS7 cells at 1 uM using pnp-TMP as substrate after 60 mins relative to control; type: cell-based
T1 sequence (whole entry): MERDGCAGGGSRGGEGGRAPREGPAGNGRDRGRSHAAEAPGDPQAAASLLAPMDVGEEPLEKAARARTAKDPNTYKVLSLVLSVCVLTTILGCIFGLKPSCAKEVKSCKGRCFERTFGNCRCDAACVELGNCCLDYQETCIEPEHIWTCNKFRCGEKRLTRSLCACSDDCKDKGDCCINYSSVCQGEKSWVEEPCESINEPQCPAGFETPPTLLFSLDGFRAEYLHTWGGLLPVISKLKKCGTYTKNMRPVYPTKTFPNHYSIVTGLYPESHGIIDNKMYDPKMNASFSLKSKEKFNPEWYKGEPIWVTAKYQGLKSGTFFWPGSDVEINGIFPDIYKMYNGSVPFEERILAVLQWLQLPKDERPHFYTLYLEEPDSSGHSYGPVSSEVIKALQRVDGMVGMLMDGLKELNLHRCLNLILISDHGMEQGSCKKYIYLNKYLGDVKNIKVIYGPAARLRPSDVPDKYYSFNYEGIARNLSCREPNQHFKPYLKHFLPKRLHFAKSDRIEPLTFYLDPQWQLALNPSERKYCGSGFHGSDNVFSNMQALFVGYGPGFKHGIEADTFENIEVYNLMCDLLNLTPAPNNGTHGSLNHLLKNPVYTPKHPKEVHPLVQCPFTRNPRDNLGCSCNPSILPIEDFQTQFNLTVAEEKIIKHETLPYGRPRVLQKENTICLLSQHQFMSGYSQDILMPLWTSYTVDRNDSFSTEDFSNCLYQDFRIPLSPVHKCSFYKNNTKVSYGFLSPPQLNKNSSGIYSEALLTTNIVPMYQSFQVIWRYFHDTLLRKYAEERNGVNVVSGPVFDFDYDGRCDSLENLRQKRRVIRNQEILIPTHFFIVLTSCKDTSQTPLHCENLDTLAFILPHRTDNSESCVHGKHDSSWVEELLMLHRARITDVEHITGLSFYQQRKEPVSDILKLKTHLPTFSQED

[2] = biological target: T2, Ectonucleotide pyrophosphatase/phosphodiesterase family member 1 (Homo sapiens, UniProt P22413); test: Inhibition of human GFP-fused NPP1 expressed in COS7 cells using pnp-TMP as substrate after 60 mins; type: cell-based
T2 sequence (P22413 whole entry): T1 sequence (whole entry)

| Compound | inhibition [1] [%] | Ki [2] [nM] |
| --- | --- | --- |
| CCCCOc1cc2c(Cl)ncnc2cc1OC | < 1 |  |
| COc1cc2ncnc(N3CCC(CCNC(C)=O)CC3)c2cc1OC | 9 |  |
| COc1cc2nc(/C=C/c3ccc(F)cc3)nc(N3CCC(CCNS(N)(=O)=O)CC3)c2cc1OC | 70 | 465 |
| COc1cc2ncnc(N3CCC(CO)CC3)c2cc1OC | 11 |  |
| COc1cc2nc(/C=C/c3ccccc3)nc(N3CCC(CCNS(N)(=O)=O)CC3)c2cc1OC | 33 | 1840 |
| COc1cc2nc(/C=C/c3ccccc3F)nc(N3CCC(CCNS(N)(=O)=O)CC3)c2cc1OC | 78 | 211 |
| CCOc1cc2c(Cl)ncnc2cc1OC | 48 | 1310 |
| COc1cccc(/C=C/c2nc(N3CCC(CCNS(N)(=O)=O)CC3)c3cc(OC)c(OC)cc3n2)c1 | 88 | 101 |
| COc1cc2ncnc(N3CCC(CC#N)CC3)c2cc1OC | < 1 |  |
| COc1cc2ncnc(N3CCC(CCN)CC3)c2cc1OC | 45 | 699 |
| COc1ccccc1/C=C/c1nc(N2CCC(CCNS(N)(=O)=O)CC2)c2cc(OC)c(OC)cc2n1 | 74 | 302 |
| COC(=O)c1ccc(/C=C/c2nc(N3CCC(CCNS(N)(=O)=O)CC3)c3cc(OC)c(OC)cc3n2)cc1 | 43 | 1340 |
| COc1cc2ncnc(N3CCC(CCNS(C)(=O)=O)CC3)c2cc1OC | 12 |  |

The remaining lines, values ahead:

| inhibition [1] [%] | Ki [2] [nM] | Compound |
| --- | --- | --- |
| 79 | 218 | COc1cc2nc(/C=C/c3ccncc3)nc(N3CCC(CCNS(N)(=O)=O)CC3)c2cc1OC |
| 74 | 297 | COC(=O)c1cccc(/C=C/c2nc(N3CCC(CCNS(N)(=O)=O)CC3)c3cc(OC)c(OC)cc3n2)c1 |
| 66 | 231 | COc1ccc(/C=C/c2nc(N3CCC(CCNS(N)(=O)=O)CC3)c3cc(OC)c(OC)cc3n2)cc1 |
| 14 | 3580 | COc1cc2nc(/C=C/c3cccc(F)c3)nc(N3CCC(CCNS(N)(=O)=O)CC3)c2cc1OC |
| 15 | 7970 | COc1cc2ncnc(Cl)c2cc1OC/C=C/S(F)(F)(F)(F)F |
| 86 | 58 | COc1cc2nc(/C=C/c3cccnc3)nc(N3CCC(CCNS(N)(=O)=O)CC3)c2cc1OC |
| 85 | 71 | COc1cc2nc(/C=C/c3ccccn3)nc(N3CCC(CCNS(N)(=O)=O)CC3)c2cc1OC |
| 87 |  | COc1cc2ncnc(N3CCC(CCNS(N)(=O)=O)CC3)c2cc1OC |
| 71 | 242 | COc1ccc2ncnc(N3CCC(CCNS(N)(=O)=O)CC3)c2c1 |
| 12 |  | CCOC(=O)C1CCN(c2ncnc3cc(OC)c(OC)cc23)CC1 |
| 69 | 366 | COc1cc2nc(CCc3ccc(F)cc3)nc(N3CCC(CCNS(N)(=O)=O)CC3)c2cc1OC |
| 79 | 90 | COc1cc2nc(CC3OC(=O)c4ccccc43)nc(N3CCC(CCNS(N)(=O)=O)CC3)c2cc1OC (stereo not given) |
| 29 | 3240 | CCCOc1cc2c(Cl)ncnc2cc1OC |

Source: ChEMBL document CHEMBL4145537, “Synthesis and biological evaluation of novel quinazoline-4-piperidinesulfamide derivatives as inhibitors of NPP1” (Eur J Med Chem, 2018)
